O=P(O)(c1ccccc1)c1ccccc1
Details | solubility (mole fraction)
in 2-ethoxyethanol, 288.15 K | 0.00619
in 2-ethoxyethanol, 293.18 K | 0.00716
in 2-ethoxyethanol, 298.17 K | 0.0081
in 2-ethoxyethanol, 303.04 K | 0.00924
in 2-ethoxyethanol, 308.11 K | 0.0106
in 2-ethoxyethanol, 313.15 K | 0.0118
in 2-ethoxyethanol, 318.2 K | 0.0135
in 2-ethoxyethanol, 323.16 K | 0.0151
in 2-ethoxyethanol, 328.2 K | 0.0172
in 2-ethoxyethanol, 332.96 K | 0.0196
in 2-ethoxyethanol, 338.03 K | 0.0223
in 2-ethoxyethanol, 343.24 K | 0.0252
in 2-ethoxyethanol, 348.24 K | 0.0285
in 2-ethoxyethanol, 353.25 K | 0.0321
in 2-ethoxyethanol, 358.29 K | 0.036
in 2-ethoxyethanol, 363.1 K | 0.0401
in acetic acid, 293.23 K | 0.00426
in acetic acid, 303.15 K | 0.00604
in acetic acid, 313.03 K | 0.00827
in acetic acid, 323.15 K | 0.0112
in acetic acid, 333.21 K | 0.0151
in acetic acid, 343.04 K | 0.0209
in acetone, 293.25 K | 0.00051
in acetone, 298.18 K | 0.00068
in acetone, 303.12 K | 0.00091
in acetone, 308.23 K | 0.0012
in acetone, 313.19 K | 0.00156
in acetone, 318.21 K | 0.00203
in acetone, 323.24 K | 0.00244
in benzene, 293.15 K | 0.0007
in benzene, 303.19 K | 0.00112
in benzene, 313.17 K | 0.00183
in benzene, 322.95 K | 0.00291
in benzene, 333.21 K | 0.00459
in benzene, 343.12 K | 0.00706
in ethanol, 283.15 K | 0.00575
in ethanol, 288.15 K | 0.00671
in ethanol, 293.1 K | 0.00774
in ethanol, 298.07 K | 0.00889
in ethanol, 303.07 K | 0.0102
in ethanol, 308.15 K | 0.0117
in ethanol, 313.16 K | 0.0134
in ethanol, 318.16 K | 0.0152
in ethanol, 322.84 K | 0.0173
in ethanol, 327.94 K | 0.0198
in ethanol, 333.1 K | 0.0231
in ethanol, 337.97 K | 0.0264
in ethanol, 342.9 K | 0.0302
in ethyl acetate, 293.06 K | 0.00052
in ethyl acetate, 298.15 K | 0.0006
in ethyl acetate, 303.15 K | 0.00075
in ethyl acetate, 308.17 K | 0.00098
in ethyl acetate, 313.23 K | 0.00121
in ethyl acetate, 318.04 K | 0.00144
in ethyl acetate, 323.1 K | 0.00176
in ethyl acetate, 328.13 K | 0.00208
in ethyl acetate, 333.25 K | 0.00247
in ethyl acetate, 337.95 K | 0.00318
in isopropanol, 288.15 K | 0.00426
in isopropanol, 293.15 K | 0.00503
in isopropanol, 297.98 K | 0.00594
in isopropanol, 303.09 K | 0.00696
in isopropanol, 308.05 K | 0.00803
in isopropanol, 313.15 K | 0.00931
in isopropanol, 318.06 K | 0.0107
in isopropanol, 323.08 K | 0.0123
in isopropanol, 328.12 K | 0.0144
in isopropanol, 332.97 K | 0.0165
in isopropanol, 338.17 K | 0.0189
in isopropanol, 342.94 K | 0.0223
in isopropanol, 347.8 K | 0.0257
in toluene, 293.15 K | 0.00049
in toluene, 303.16 K | 0.00074
in toluene, 313.18 K | 0.00107
in toluene, 323.08 K | 0.00157
in toluene, 333.17 K | 0.00232
in toluene, 343.25 K | 0.00326
in toluene, 352.95 K | 0.00462
in toluene, 362.65 K | 0.00651
in water, 303.14 K | 5e-05
in water, 313.17 K | 8e-05
in water, 323.13 K | 0.00011
in water, 333 K | 0.00014
in water, 343.05 K | 0.00018
in water, 353.05 K | 0.00023

— BigSolDB 2.1
